# Assays:
# barnyardgrass [1] = test: Test A pre-/postemergence herbicide test; assay type: in vivo, Echinochloa crus-galli
# In short: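 Planted in loam–sand blend; treated the same day preemergence by directed soil spray, while separately grown plants at one- to two-leaf stage got postemergence spray. Compared visually with untreated controls after approximately 10 days; 100 means complete control.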
# sedge, umbrella = test: Test B flooded paddy test; assay type: in vivo, Cyperus difformis; details: Flood, scale of 0 to 100 where 0 is no effect and 100 is complete control
# In short: (§1)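 Plants grown to 2-leaf stage; pots flooded 3 cm above soil and compound applied directly into paddy water, depth held throughout. Visual rating against untreated controls after 13 to 15 days in greenhouse, 0 (no effect) to 100 (complete control).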
# barnyardgrass [2] = test: Test B flooded paddy test; assay type: in vivo, Echinochloa crus-galli; details: Flood, scale of 0 to 100 where 0 is no effect and 100 is complete control
# In short: as §1
# blackgrass = test: Test C pre-/postemergence herbicide test; assay type: in vivo, Alopecurus myosuroides
# In short: (§2)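 Test compounds, formulated in a surfactant-containing non-phytotoxic solvent blend, are applied to seeded loam/sand soil (preemergence) and to young plants at the 1- to 4-leaf stage in peat-based medium (postemergence). Plants stay 13 to 15 days under greenhouse conditions, then are scored visually relative to controls, 0 = no effect, 100 = complete control.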
# wheat (winter wheat) = test: Test C pre-/postemergence herbicide test; assay type: in vivo, Triticum aestivum
# In short: as §2
# corn = test: Test C pre-/postemergence herbicide test; assay type: in vivo, Zea mays
# In short: as §2
# crabgrass, large = test: Test C pre-/postemergence herbicide test; assay type: in vivo, Digitaria sanguinalis
# In short: as §2
# lambsquarters = test: Test C pre-/postemergence herbicide test; assay type: in vivo, Chenopodium album
# In short: as §2
# soybean = test: Test C pre-/postemergence herbicide test; assay type: in vivo, Glycine max
# In short: as §2
# oat, wild = test: Test C pre-/postemergence herbicide test; assay type: in vivo, Avena fatua
# In short: as §2
# velvetleaf = test: Test C pre-/postemergence herbicide test; assay type: in vivo, Abutilon theophrasti
# In short: as §2
# [3] = Postemergence, 500 g ai/ha, 0 to 100 scale (0 no effect, 100 complete control)
# [4] = Postemergence, 31 g ai/ha, scale 0 (no effect) to 100 (complete control)
# [5] = Postemergence, 62 g ai/ha, scale 0 to 100 (0 no effect, 100 complete control)
# [6] = Postemergence, 125 g ai/ha, scale 0 to 100 (0 no effect, 100 complete control)
# [7] = Postemergence, 250 g ai/ha, scale 0 to 100 (0 no effect, 100 complete control)
# [8] = Preemergence, 62 g ai/ha, scale 0 to 100
# [9] = Preemergence, 125 g ai/ha, scale 0 to 100 (0 no effect, 100 complete control)
# [10] = Preemergence, 31 g ai/ha, scale 0 to 100 (0 no effect, 100 complete control)
# [11] = Preemergence, 250 g ai/ha, scale 0 to 100 (0 no effect, 100 complete control)
# [12] = Postemergence, 31 g ai/ha, scale 0 to 100 (0 no effect, 100 complete control)
# [13] = Postemergence, 62 g ai/ha, scale 0 (no effect) to 100 (complete control)
# [14] = Preemergence, 31 g ai/ha, scale 0 to 100, 0 is no effect and 100 is complete control
# [15] = Preemergence, 62 g ai/ha, scale 0 to 100 (0 no effect, 100 complete control)
smiles,measurement,setting,value
O=C1NCC(c2ccc(Cl)c(F)c2)C1C(=O)Nc1cccc(F)c1F (stereo not shown) [Compound 52],"Plant response rating, Barnyardgrass","barnyardgrass [1]; Postemergence, 125 g ai/ha, 0 to 100 scale, 0 no effect, 100 complete control",80
same,"Plant response rating, Barnyardgrass",barnyardgrass [1]; [3],80
same,Barnyardgrass plant response rating,"barnyardgrass [1]; Preemergence, 125 g ai/ha, visual rating on 0 to 100 scale (0 no effect, 100 complete control)",80
same,"Plant response rating, Barnyardgrass","barnyardgrass [1]; preemergence, 500 g ai/ha, 0 to 100 scale (0 no effect, 100 complete control)",90
same,"Plant response rating, Sedge, Umbrella","sedge, umbrella; 250 g ai/ha",85
same,"Plant response rating, Barnyardgrass",barnyardgrass [2]; 250 g ai/ha,55
same,"Plant response rating, Blackgrass",blackgrass; [4],0
same,"Plant response rating, Blackgrass",blackgrass; [5],0
same,"Plant response rating, Blackgrass",blackgrass; [6],0
same,"Plant response rating, Blackgrass",blackgrass; [7],0
same,"Plant response rating, Blackgrass",blackgrass; [8],0
same,"Plant response rating, Blackgrass",blackgrass; [9],0
same,Blackgrass plant response rating,blackgrass; [10],0
same,"Plant response rating, Blackgrass",blackgrass; [11],0
same,"Plant response rating, Wheat",wheat (winter wheat); [4],0
same,"Plant response rating, Wheat",wheat (winter wheat); [5],0
same,"Plant response rating, Wheat",wheat (winter wheat); [6],0
same,"Plant response rating, Wheat",wheat (winter wheat); [7],0
same,"Plant response rating, Wheat",wheat (winter wheat); [8],0
same,"Plant response rating, Wheat",wheat (winter wheat); [9],10
same,"Plant response rating, Corn",corn; [4],0
same,"Plant response rating, Corn",corn; [5],0
same,"Plant response rating, Corn",corn; [6],5
same,"Plant response rating, Corn",corn; [7],5
same,"Plant response rating, Corn",corn; [8],10
same,"Plant response rating, Corn",corn; [9],10
same,Corn plant response rating,corn; [10],10
same,"Plant response rating, Corn",corn; [11],10
same,"Plant response rating, Crabgrass, Large","crabgrass, large; [4]",50
same,"Plant response rating, Crabgrass, Large","crabgrass, large; [5]",55
same,"Plant response rating, Crabgrass, Large","crabgrass, large; [6]",55
same,"Plant response rating, Crabgrass, Large","crabgrass, large; [7]",75
same,"Plant response rating, Crabgrass, Large","crabgrass, large; [8]",90
same,"Plant response rating, Crabgrass, Large","crabgrass, large; [9]",90
same,"Crabgrass, Large plant response rating","crabgrass, large; [10]",80
same,"Plant response rating, Crabgrass, Large","crabgrass, large; [11]",95
same,"Plant response rating, Lambsquarters",lambsquarters; [5],10
same,"Plant response rating, Lambsquarters",lambsquarters; [6],40
same,"Plant response rating, Lambsquarters",lambsquarters; [7],40
same,"Plant response rating, Lambsquarters",lambsquarters; [8],40
same,"Plant response rating, Lambsquarters",lambsquarters; [9],70
same,"Plant response rating, Soybean",soybean; [4],0
same,"Plant response rating, Soybean",soybean; [5],0
same,"Plant response rating, Soybean",soybean; [6],5
same,"Plant response rating, Soybean",soybean; [7],5
same,"Plant response rating, Soybean",soybean; [8],10
same,"Plant response rating, Soybean",soybean; [9],15
same,"Plant response rating, Oat, Wild","oat, wild; [4]",0
same,"Plant response rating, Oat, Wild","oat, wild; [5]",0
same,"Plant response rating, Oat, Wild","oat, wild; [6]",0
same,"Plant response rating, Oat, Wild","oat, wild; [7]",0
same,"Plant response rating, Oat, Wild","oat, wild; [8]",0
same,"Plant response rating, Oat, Wild","oat, wild; [9]",0
same,"Plant response rating, Velvetleaf",velvetleaf; [4],10
same,"Plant response rating, Velvetleaf",velvetleaf; [5],20
same,"Plant response rating, Velvetleaf",velvetleaf; [6],20
same,"Plant response rating, Velvetleaf",velvetleaf; [7],35
same,"Plant response rating, Velvetleaf",velvetleaf; [8],5
same,"Plant response rating, Velvetleaf",velvetleaf; [9],5
CN1CC(c2ccc(F)c(F)c2)C(C(=O)Nc2cccc(F)c2F)C1=O (stereo not shown) [Compound 303],"Plant response rating, Barnyardgrass","barnyardgrass [1]; Postemergence, 125 g ai/ha, visual rating on 0 to 100 scale (0 no effect, 100 complete control), approx. 10 days",80
same,"Plant response rating, Barnyardgrass",barnyardgrass [1]; [3],90
same,"Plant response rating, Barnyardgrass","barnyardgrass [1]; Preemergence, 125 g ai/ha, 0 to 100 scale where 0 is no effect and 100 is complete control",90
same,Barnyardgrass plant response rating,"barnyardgrass [1]; Preemergence, 500 g ai/ha, visual rating on 0 to 100 scale (0 no effect, 100 complete control)",90
same,"Plant response rating, Sedge, Umbrella","sedge, umbrella; 500 g ai/ha",0
same,"Plant response rating, Barnyardgrass",barnyardgrass [2]; 500 g ai/ha,80
same,"Plant response rating, Blackgrass",blackgrass; [12],0
same,"Plant response rating, Blackgrass",blackgrass; [13],0
same,"Plant response rating, Blackgrass",blackgrass; [6],0
same,"Plant response rating, Blackgrass",blackgrass; [7],0
same,Blackgrass plant response rating,blackgrass; [14],0
same,Blackgrass plant response rating,blackgrass; [15],40
same,"Plant response rating, Blackgrass",blackgrass; [9],80
same,"Plant response rating (scale of 0 to 100), Blackgrass","blackgrass; Preemergence, 250 g ai/ha",90
same,"Plant response rating, Wheat",wheat (winter wheat); [12],0
same,"Plant response rating, Wheat",wheat (winter wheat); [13],0
same,"Plant response rating, Wheat",wheat (winter wheat); [6],0
same,"Plant response rating, Wheat",wheat (winter wheat); [7],0
same,Wheat plant response rating,wheat (winter wheat); [14],0
same,Wheat plant response rating,wheat (winter wheat); [15],75
same,"Plant response rating (scale of 0 to 100), Wheat","wheat (winter wheat); Preemergence, 250 g ai/ha",90
same,"Plant response rating, Corn",corn; [12],0
same,"Plant response rating, Corn",corn; [13],0
same,"Plant response rating, Corn",corn; [6],0
same,"Plant response rating, Corn",corn; [7],15
same,Corn plant response rating,corn; [14],10
same,Corn plant response rating,corn; [15],20
same,"Plant response rating, Corn",corn; [9],35
same,"Plant response rating (scale of 0 to 100), Corn","corn; Preemergence, 250 g ai/ha",45
same,"Plant response rating, Crabgrass, Large","crabgrass, large; [12]",0
same,"Plant response rating, Crabgrass, Large","crabgrass, large; [13]",40
same,"Plant response rating, Crabgrass, Large","crabgrass, large; [6]",65
same,"Plant response rating, Crabgrass, Large","crabgrass, large; [7]",90
same,"Crabgrass, Large plant response rating","crabgrass, large; [14]",95
same,"Crabgrass, Large plant response rating","crabgrass, large; [15]",98
same,"Plant response rating, Crabgrass, Large","crabgrass, large; [9]",98
same,"Plant response rating (scale of 0 to 100), Crabgrass, Large","crabgrass, large; Preemergence, 250 g ai/ha",100
same,"Plant response rating, Lambsquarters",lambsquarters; [12],35
same,"Plant response rating, Lambsquarters",lambsquarters; [13],85
same,"Plant response rating, Lambsquarters",lambsquarters; [6],65
same,"Plant response rating, Lambsquarters",lambsquarters; [7],80
same,Lambsquarters plant response rating,lambsquarters; [14],55
same,Lambsquarters plant response rating,lambsquarters; [15],60
same,"Plant response rating, Lambsquarters",lambsquarters; [9],65
same,"Plant response rating (scale of 0 to 100), Lambsquarters","lambsquarters; Preemergence, 250 g ai/ha",80
same,"Plant response rating, Soybean",soybean; [12],0
same,"Plant response rating, Soybean",soybean; [13],0
same,"Plant response rating, Soybean",soybean; [6],0
same,"Plant response rating, Soybean",soybean; [7],0
same,Soybean plant response rating,soybean; [14],0
same,Soybean plant response rating,soybean; [15],0
same,"Plant response rating, Soybean",soybean; [9],0
same,"Plant response rating (scale of 0 to 100), Soybean","soybean; Preemergence, 250 g ai/ha",20
same,"Plant response rating, Oat, Wild","oat, wild; [12]",0
same,"Plant response rating, Oat, Wild","oat, wild; [13]",0
same,"Plant response rating, Oat, Wild","oat, wild; [6]",0
same,"Plant response rating, Oat, Wild","oat, wild; [7]",0
same,"Plant response rating, Velvetleaf",velvetleaf; [12],35
same,"Plant response rating, Velvetleaf",velvetleaf; [13],0
same,"Plant response rating, Velvetleaf",velvetleaf; [6],25
same,"Plant response rating, Velvetleaf",velvetleaf; [7],35
same,Velvetleaf plant response rating,velvetleaf; [14],10
same,Velvetleaf plant response rating,velvetleaf; [15],25
same,"Plant response rating, Velvetleaf",velvetleaf; [9],50
same,"Plant response rating (scale of 0 to 100), Velvetleaf","velvetleaf; Preemergence, 250 g ai/ha",55
